According to PMC7748244 (ACS Infectious Diseases, 2020):
pIC50: −log10 of the molar value.

Biological target: T1, PfJmj3 (Plasmodium falciparum, UniProt Q8IIE4)
T1 sequence (Q8IIE4 1-446): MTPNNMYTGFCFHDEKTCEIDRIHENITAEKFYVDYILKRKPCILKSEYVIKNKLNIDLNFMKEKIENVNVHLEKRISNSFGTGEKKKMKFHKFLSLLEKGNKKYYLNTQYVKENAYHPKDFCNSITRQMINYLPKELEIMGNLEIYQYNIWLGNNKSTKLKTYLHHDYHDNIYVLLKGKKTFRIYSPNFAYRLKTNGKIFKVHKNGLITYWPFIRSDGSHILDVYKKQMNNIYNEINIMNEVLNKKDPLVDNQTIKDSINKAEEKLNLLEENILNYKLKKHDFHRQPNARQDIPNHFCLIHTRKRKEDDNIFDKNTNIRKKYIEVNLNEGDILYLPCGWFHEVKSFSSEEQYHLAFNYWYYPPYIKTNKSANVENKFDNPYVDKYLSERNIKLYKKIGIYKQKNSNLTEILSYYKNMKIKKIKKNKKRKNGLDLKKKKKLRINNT
Assay: Succinate-Glo luciferase-coupled assay
Type: biochemical

## Clc1ccc(N/N=C(\c2ccccc2)c2ccccn2)nc1 [JIB-04 E]
  pIC50: 5.59

## CN(C)CCCNC(=O)c1ccc(-c2cc(O)c3ncccc3c2)cc1 [ML324]
  pIC50: 5.48

## CC(C)C(=O)NC(c1ccco1)c1ccc2cccnc2c1O (stereo not drawn) [SD-70]
  pIC50: 5.62
